Experimental data from the NIST ThermoML archive (doi:10.1016/j.jct.2012.02.023).

Assay: xn = mol fraction of the nth substance listed
Settings: 101 kPa, Liquid; for speed of sound: Sing-around technique in a fixed-path interferometer; for mass density: Vibrating tube method

CCCC[n+]1cccc(C)c1.F[B-](F)(F)F [1-butyl-3-methylpyridinium tetrafluoroborate] + CO
Settings | mass density, 293.15 K [kg/m3] | mass density, 303.15 K [kg/m3] | mass density, 313.15 K [kg/m3] | mass density, 323.15 K [kg/m3] | speed of sound, 293.15 K [m/s] | speed of sound, 303.15 K [m/s] | speed of sound, 313.15 K [m/s] | speed of sound, 323.15 K [m/s]
x1 = 0.0481 | 876.902 | 868.149 | 858.994 | 850.146 | 1203.1 | 1173.4 | 1143.9 | 1114.7
x1 = 0.1001 | 940.659 | 932.121 | 923.594 | 915.022 | 1271 | 1243.3 | 1215.7 | 1188.3
x1 = 0.1548 | 988.767 | 980.512 | 972.213 | 964.125 | 1330.9 | 1304.2 | 1277.6 | 1251.7
x1 = 0.2003 | 1019.3 | 1011.19 | 1003.35 | 995.225 | 1370 | 1344 | 1318.1 | 1292.4
x1 = 0.2487 | 1045.53 | 1037.61 | 1029.56 | 1021.63 | 1407.2 | 1381.6 | 1356 | 1330.8
x1 = 0.297 | 1066.65 | 1058.61 | 1050.84 | 1042.82 | 1433.6 | 1408.1 | 1382.9 | 1358
x1 = 0.4013 | 1101.04 | 1093.31 | 1085.48 | 1077.9 | 1482.7 | 1457.9 | 1433 | 1415
x1 = 0.4969 | 1123.82 | 1116.42 | 1108.81 | 1101.29 | 1514.2 | 1489.3 | 1464.9 | 1443.1
x1 = 0.5974 | 1142.04 | 1134.73 | 1127.47 | 1120.24 | 1538.7 | 1514.1 | 1489.9 | 1466.2
x1 = 0.6972 | 1156.18 | 1149.17 | 1142.08 | 1135 | 1557.9 | 1533.5 | 1509.5 | 1485.8
x1 = 0.8437 | 1172.39 | 1165.51 | 1158.69 | 1151.77 | 1580.4 | 1556.2 | 1532.6 | 1509.2
x1 = 0.8984 | 1177.43 | 1170.57 | 1163.79 | 1156.96 | 1587.2 | 1562.8 | 1539.3 | 1516
x1 = 0.9692 | 1183.29 | 1176.48 | 1169.74 | 1162.98 | 1595.6 | 1571.3 | 1547.5 | 1524.5

CCCC[n+]1ccc(C)cc1.F[B-](F)(F)F [1-butyl-4-methylpyridinium tetrafluoroborate] + CCO
Settings | mass density, 293.15 K [kg/m3] | mass density, 303.15 K [kg/m3] | mass density, 313.15 K [kg/m3] | mass density, 323.15 K [kg/m3] | speed of sound, 293.15 K [m/s] | speed of sound, 303.15 K [m/s] | speed of sound, 313.15 K [m/s] | speed of sound, 323.15 K [m/s]
x1 = 0.0507 | 854.988 | 846.802 | 838.56 | 830.183 | 1206.5 | 1176.7 | 1147.1 | 1117.3
x1 = 0.1 | 904.491 | 896.578 | 888.401 | 880.152 | 1246.2 | 1219 | 1189.9 | 1162.1
x1 = 0.1971 | 976.866 | 969.284 | 961.403 | 953.269 | 1321.9 | 1296.3 | 1268.9 | 1240.4
x1 = 0.2912 | 1026.69 | 1019.31 | 1011.46 | 1003.86 | 1384.8 | 1359.2 | 1333.8 | 1308.5
x1 = 0.3903 | 1066.1 | 1058.84 | 1051.3 | 1043.95 | 1440.8 | 1415 | 1389.7 | 1364.8
x1 = 0.4876 | 1096.19 | 1088.98 | 1081.75 | 1074.66 | 1483.8 | 1457.9 | 1432.5 | 1408
x1 = 0.5825 | 1119.75 | 1112.72 | 1105.58 | 1098.5 | 1522.5 | 1496.8 | 1471.7 | 1446.7
x1 = 0.6879 | 1141.24 | 1134.29 | – | 1120.3 | 1548.5 | 1525.3 | 1499.5 | 1475.8
x1 = 0.7938 | 1159.02 | 1152.18 | 1145.03 | 1138.28 | 1576.1 | 1556 | – | 1502.9
x1 = 0.8927 | 1173 | 1166.2 | 1159.13 | 1152.42 | 1594.2 | 1569.1 | – | 1522.3
x1 = 0.9284 | 1177.54 | 1170.73 | 1163.69 | 1157 | 1601.9 | 1579.3 | – | 1530.5

CCCC[n+]1cccc(C)c1.F[B-](F)(F)F [1-butyl-3-methylpyridinium tetrafluoroborate] + CCO
Settings | mass density, 293.15 K [kg/m3] | mass density, 303.15 K [kg/m3] | mass density, 313.15 K [kg/m3] | mass density, 323.15 K [kg/m3] | speed of sound, 293.15 K [m/s] | speed of sound, 303.15 K [m/s] | speed of sound, 313.15 K [m/s] | speed of sound, 323.15 K [m/s]
x1 = 0.0572 | 861.245 | 852.837 | 844.506 | 835.724 | 1206 | 1177 | 1146.5 | 1116.4
x1 = 0.0964 | 900.833 | 892.417 | 884.287 | 875.61 | 1239.4 | 1212.4 | 1183.6 | 1155.2
x1 = 0.1466 | 942.807 | 934.902 | 926.796 | 918.466 | 1281 | 1254.5 | 1228.4 | 1202
x1 = 0.1964 | 977.495 | 969.562 | 961.571 | 953.451 | 1320 | 1294.8 | 1269.1 | 1244.2
x1 = 0.2431 | 1004.66 | 996.702 | 988.807 | 980.836 | 1355.1 | 1330 | 1304.6 | 1279.3
x1 = 0.2998 | 1032.24 | 1024.76 | 1016.86 | 1009.22 | 1390.6 | 1365.5 | 1340.4 | 1315.4
x1 = 0.3966 | 1069.96 | 1062.42 | 1055 | 1047.46 | 1442.7 | 1417.4 | 1392.4 | 1366.2
x1 = 0.4984 | 1100.02 | 1092.8 | 1085.55 | 1078.03 | 1484.2 | 1459.2 | 1434.3 | 1409.9
x1 = 0.5931 | 1122.42 | 1115.36 | 1108.06 | 1100.95 | 1515.9 | 1491 | 1466.4 | 1442.2
x1 = 0.691 | 1141.63 | – | 1127.5 | 1120.36 | 1543.7 | – | 1494.9 | 1471.2
x1 = 0.8022 | 1159.85 | – | 1145.95 | 1138.97 | 1566.2 | – | 1517.2 | 1493.8
x1 = 0.8923 | 1172.56 | – | 1158.84 | 1151.94 | 1582.6 | – | 1534.7 | 1511.3
x1 = 0.9517 | 1180.05 | – | 1166.44 | 1159.62 | 1591.7 | – | 1543.7 | 1519.5

CCCC[n+]1ccc(C)cc1.F[B-](F)(F)F [1-butyl-4-methylpyridinium tetrafluoroborate] + CO
Settings | mass density, 293.15 K [kg/m3] | mass density, 303.15 K [kg/m3] | mass density, 313.15 K [kg/m3] | mass density, 323.15 K [kg/m3] | speed of sound, 293.15 K [m/s] | speed of sound, 303.15 K [m/s] | speed of sound, 313.15 K [m/s] | speed of sound, 323.15 K [m/s]
x1 = 0.0507 | 881.091 | 872.29 | 863.158 | 854.017 | 1208.6 | 1178.1 | 1148.1 | 1119.5
x1 = 0.0989 | 939.26 | 930.783 | 922.085 | – | 1271.8 | 1242.3 | 1214.2 | –
x1 = 0.1922 | 1013.58 | 1005.46 | 997.343 | 989.026 | 1364.3 | 1337.8 | 1311.3 | 1289
x1 = 0.2934 | 1064.12 | 1056.34 | 1048.54 | 1040.72 | 1433.1 | 1409.5 | 1381.4 | 1361.5
x1 = 0.3877 | 1096.33 | 1088.9 | 1081.21 | 1073.75 | 1479.9 | 1455.9 | 1431.2 | 1407.8
x1 = 0.4839 | 1120.56 | 1113.33 | 1105.85 | 1098.72 | 1517 | 1490.9 | 1464.4 | 1439.8
x1 = 0.5909 | 1140.92 | 1133.83 | 1126.57 | 1119.63 | 1546.9 | 1521.3 | 1494.6 | 1471.5
x1 = 0.6925 | 1155.91 | 1148.93 | 1141.79 | 1134.99 | 1568.3 | 1543.5 | 1518.2 | 1494.6
x1 = 0.8001 | 1168.52 | 1161.62 | 1154.59 | 1147.87 | 1587.9 | 1563.2 | 1538.4 | 1516
x1 = 0.9042 | 1178.4 | 1171.56 | 1164.56 | 1157.92 | 1602.5 | 1577.6 | 1553.6 | 1531.3
x1 = 0.9535 | 1182.44 | 1175.62 | 1168.62 | 1162.01 | 1607.8 | 1583.1 | 1558.9 | 1536.3
